In PMC2886105, “Assay Strategies for the Discovery and Validation of Therapeutics Targeting Brugia pahangi Hsp90” (PLoS Neglected Tropical Diseases, 2010):
Where two headings read alike, the source gives them in different places. One block for each compound: values may come before it.

Key:
B. pahangi Mf = test: Mortality of purified B. pahangi Mf incubated in drug; design: species or system Brugia pahangi; conditions: day 7
Description: (§1) Mf output by individual female worms was assessed at two time points and adult worms were examined microscopically and their condition noted. Results are expressed as mean Mf output over a three-day period ± SD. Statistical significance between groups was calculated using the Mann Whitney test with P values <0.05 being considered significant.
In separate experiments, Mf were purified from the peritoneal cavity of infected animals and incubated alone in each of the drugs.

adult female B. pahangi [1] = test: Mf output by adult female B. pahangi cultured in vitro with drug; design: species or system Brugia pahangi; conditions: GA at 1 µM; PU-H71 and PU-DZ8 at 5 and 10 µM; three-day period
Description: as §1
(§2) Figure 3 Brugia assay validation. […] Ligand binding was plotted against the log10 inhibitor concentration, and EC50 values were calculated using a nonlinear least-square curve-fitting program in Prism 4.0. Points, mean; bars, s.d. […] Graphs show mean and SD of Mf output over a three-day period from six female worms per group.

adult B. pahangi = test: Condition and activity of adult B. pahangi worms in vitro; design: species or system Brugia pahangi
Description: Mf output by individual female worms was assessed at two time points and adult worms were examined microscopically and their condition noted. Results are expressed as mean Mf output over a three-day period ± SD.

Brugia Hsp90 = molecular target: T1, Brugia Hsp90 (Brugia pahangi, UniProt O61998); test: biochemical; type: binding; conditions: for IC50: 6 nM cy3B-GA, 2 µg/well Brugia extract, 4°C, 24 h; for dose-dependent reduction of the FP signal: Figure 3B, Brugia extract
T1 construct: from tissue; host or cells: whole adult B. pahangi worms from infected gerbils, ground and re-suspended in HFB assay buffer
Description: FP measurements were performed using black 96-well microtiter plates (Corning #3650), where both the excitation and the emission occurred from the top of the well, on an Analyst GT plate reader (Molecular Devices, Sunnyvale, CA). An integration time of 100 ms was used, and Z height was set at 3 mm (middle). The excitation polarization was set at static, and the emission polarization was set at dynamic. […] All FP values were expressed in millipolarization (mP) units. The mP values were calculated using the equation mP = 1000× [(IS – ISB) – (IP – IPB)]/[(IS – ISB) + (IP – IPB)], where IS is the parallel emission intensity measurement, IP is the perpendicular emission intensity sample measurement, and ISB and […] are the corresponding measurements for background (buffer). Total fluorescence was determined as 2×IP+IS.
For the competition studies, FP assays were performed as previously reported. […] Drugs were added to triplicate wells. […] Plates were incubated on a shaker at 4°C, and polarization values measured at 8 to 24 h.
as §2

adult female B. pahangi [2] = system: adult female B. pahangi; design: method as in PMID 15862576; conditions: adult worms ref 14; cited from earlier work

Compound: CC(C)NCCCn1c(Sc2cc3c(cc2I)OCO3)nc2c(N)ncnc21 [PU-H71]
Mf dead (B. pahangi Mf; 5.0 µM): approximately 80% | Mf dead (B. pahangi Mf; 10 µM): 100% | effect on Mf release (adult female B. pahangi [1]): profound effect | activity of adult worms (adult B. pahangi; 5.0 µM): markedly less active | activity of adult worms (adult B. pahangi; 10 µM): markedly less active | concentration of drug required to kill adult Brugia (adult B. pahangi; in vitro): 2.5 µM | IC50 (Brugia Hsp90; Brugia IC50, Figure 4C): 80.8 ± 0.5 nM | IC50 (Brugia Hsp90; IC50, inhibition of the binding of cy3B-GA to Brugia Hsp90, values in text for Figure 3C): 80 nM

Compound: ivermectin
dose-dependent reduction of the FP signal (Brugia Hsp90): no such effect

Compound: Nc1ncnc2c1ncn2[C@@H]1O[C@H](COP(=O)(O)OP(=O)(O)O)[C@@H](O)[C@H]1O [ADP]
dose-dependent reduction of the FP signal (Brugia Hsp90): dose-dependent reduction of the FP signal

Compound: C#CCCCn1c(Cc2cc(OC)c(OC)c(OC)c2Cl)nc2c(N)nc(F)nc21 [PU-24FCl]
Selectivity ratio (Brugia IC50 / SKBr3 IC50) (Brugia Hsp90): 2 | IC50 (Brugia Hsp90; Brugia IC50, Figure 4C): 1410 ± 10 nM

Compound: COC1=C2C[C@@H](C)C[C@H](OC)[C@H](O)[C@@H](C)/C=C(\C)[C@H](OC(N)=O)[C@@H](OC)/C=C\C=C(/C)C(=O)NC(=CC1=O)C2=O [GA, geldanamycin]
Mf dead (B. pahangi Mf; 1.0 µM): all dead | effect on Mf release (adult female B. pahangi [1]): profound effect | onset of effect on Mf output (adult female B. pahangi [2]): ≤ 24 h

Now from value to compound:

Selectivity ratio (Brugia IC50 / SKBr3 IC50) (Brugia Hsp90; Brugia vs human SKBr3 Hsp90 species): 9
Compound: CC(C)NCCCn1c(Sc2cc3c(cc2I)OCC3)nc2c(N)ncnc21 [PU-WS10]

EC50 (Brugia Hsp90): > 10000 nM
Compound: CO[C@@H]1[C@@H](OC(N)=O)[C@@H](O)[C@H](Oc2ccc3c(O)c(NC(=O)c4ccc(O)c(CC=C(C)C)c4)c(=O)oc3c2C)OC1(C)C [novobiocin]

EC50 (Brugia Hsp90): 75.4 nM
Compound: C[C@@H]1C[C@H]2O[C@@H]2/C=C\C=C\C(=O)Cc2c(Cl)c(O)cc(O)c2C(=O)O1 [radicicol]
